Non-standard residues stand in square brackets, D forms with d. Residues, ends and D or L forms follow the SMILES beside them. Ahx = NCCCCCC(=O)O
Assay: Peptide stability in human serum
Assay type: in vitro ADME
Settings: human serum (Gibco), 37 °C, intact peptide by MALDI-TOF MS, triplicate, mean; for remaining at 6 h: 6 h incubation, read-out: percentage of peptide recovered in human serum, 6 h; for remaining at 24 h: 24 h incubation, read-out: percentage of peptide recovered in human serum, 24 h
Protocol: The peptide TT1-IP was incubated at 37 °C in […] of human serum (Gibco, Illikirch, France) for different periods of time. Samples were collected and peptide degradation stopped by freezing at −20 °C. The peptide was extracted from samples using the Proteo Miner Protein Enrichment System (Bio-Rad, Marnes-la-Coquette, France). The percentage of intact peptide was estimated by mass spectrometry (MS) using MALDI-TOFF with the protocol previously described (Bruker Autoflex II, Palaiseau, France) according to the manufacturer’s instructions. Measurements were performed in triplicate. MS data were analysed using the software Cliprot tools, Flex analysis, Bruker.
iRGD-IP and Lin TT1-IP were incubated in human serum at 37 °C for different periods of time. The integrity of the peptide was analyzed by mass spectrometry (MS). Every measurement was performed in triplicate. Each value is represented as the mean ± standard deviation (SD). Similar results were obtained in two independent experiments.

SMILES | remaining at 3 h (3 h incubation, read-out: percentage of peptide recovered in human serum, 3 h) [%] | remaining at 6 h [%] | remaining at 24 h [%] | remaining at 1 h (1 h incubation, read-out: percentage of peptide recovered in human serum, 1 h) [%]
CC[C@H](C)[C@H](NC(=O)[C@H](CCCNC(=N)N)NC(=O)[C@H](CCC(=O)O)NC(=O)[C@H](CCCNC(=N)N)NC(=O)[C@H](Cc1ccc(O)cc1)NC(=O)[C@H](CCCNC(=N)N)NC(=O)[C@@H](NC(=O)[C@H](CCCCN)NC(=O)[C@H](CC(C)C)NC(=O)[C@H](C)NC(=O)[C@@H](NC(=O)[C@H](CC(C)C)NC(=O)[C@H](CC(C)C)NC(=O)[C@@H](NC(=O)[C@@H](NC(=O)[C@@H](NC(=O)[C@@H](N)CCC(=O)O)[C@@H](C)O)C(C)C)[C@@H](C)O)C(C)C)C(C)C)C(=O)N[C@H](C(=O)NCCCCCC(=O)N[C@@H](C)C(=O)N[C@@H](CCCCN)C(=O)N[C@@H](CCCNC(=N)N)C(=O)NCC(=O)N[C@@H](C)C(=O)N[C@@H](CCCNC(=N)N)C(=O)N[C@@H](CO)C(=O)N[C@H](C(=O)N[C@@H](C)C(N)=O)[C@@H](C)O)[C@@H](C)O [Lin TT1-IP] (H-ETVTLLVALKVRYRERIT[Ahx]AKRGARSTA-NH2) | ~80 | 44 | ~30 | –
CC[C@H](C)[C@H](NC(=O)[C@H](CCCNC(=N)N)NC(=O)[C@H](CCC(=O)O)NC(=O)[C@H](CCCNC(=N)N)NC(=O)[C@H](Cc1ccc(O)cc1)NC(=O)[C@H](CCCNC(=N)N)NC(=O)[C@@H](NC(=O)[C@H](CCCCN)NC(=O)[C@H](CC(C)C)NC(=O)[C@H](C)NC(=O)[C@@H](NC(=O)[C@H](CC(C)C)NC(=O)[C@H](CC(C)C)NC(=O)[C@@H](NC(=O)[C@@H](NC(=O)[C@@H](NC(=O)[C@@H](N)CCC(=O)O)[C@@H](C)O)C(C)C)[C@@H](C)O)C(C)C)C(C)C)C(=O)N[C@H](C(=O)NCCCCCC(=O)N[C@H]1CSSC[C@@H](C(N)=O)NC(=O)[C@H](CC(=O)O)NC(=O)[C@@H]2CCCN2C(=O)CNC(=O)[C@H](CCCCN)NC(=O)[C@H](CC(=O)O)NC(=O)CNC(=O)[C@H](CCCNC(=N)N)NC1=O)[C@@H](C)O [iRGD-IP] | – | 77 | 62 | 91
